The values that follow come from patent publication US8372863B2, “Tetrahydro-1H-pyrrolo fused pyridones” (Merck Sharp & Dohme Corp., priority 2008, dated 2013).

A word on the IC50: it is the concentration that inhibits the measured activity by half.

For the assay, the target named is PHD2 (Homo sapiens, UniProt Q9GZT9). In words: PHD2 / HIF-1α peptide hydroxylation assay with time resolved fluorescence readout (PHD2 binding activity). It counts as biochemical. As to conditions: FLAG-tagged full length PHD2; 0.2 μM 2-oxoglutarate, 0.5 μM HIF-1α peptide; read-out: PHD2 Activity (PHD2 binding activity expressed as IC50). As to the method:
After a 30 min preincubation at room temperature, the enzymatic reactions were initiated by the addition of 4 μL of substrates (final concentrations of 0.2 μM 2-oxoglutarate and 0.5 μM HIF-1α peptide biotinyl-DLDLEMLAPYIPMDDDFQL). After 2 hr at room temperature, the reactions were terminated and signals were developed by the addition of a 25 μL quench/detection mix to a final concentration of 1 mM ortho-phenanthroline, 0.1 mM EDTA, 0.5 nM anti-(His)6 LANCE reagent (Perkin-Elmer Life Sciences), 100 nM AF647-labeled streptavidin (Invitrogen), and 2 μg/ml (His)6-VHL complex (S. Tan(2001) Protein Expr. Purif 21, 224-234). The ratio of time resolved fluorescence signals at 665 and 620 nm was determined, and percent inhibition was calculated relative to an uninhibited control sample run in parallel.

SMILES strings stand for the structures. Where a name gives a salt, the structure may show the parent alone.

Sequence of PHD2 (Q9GZT9 whole entry): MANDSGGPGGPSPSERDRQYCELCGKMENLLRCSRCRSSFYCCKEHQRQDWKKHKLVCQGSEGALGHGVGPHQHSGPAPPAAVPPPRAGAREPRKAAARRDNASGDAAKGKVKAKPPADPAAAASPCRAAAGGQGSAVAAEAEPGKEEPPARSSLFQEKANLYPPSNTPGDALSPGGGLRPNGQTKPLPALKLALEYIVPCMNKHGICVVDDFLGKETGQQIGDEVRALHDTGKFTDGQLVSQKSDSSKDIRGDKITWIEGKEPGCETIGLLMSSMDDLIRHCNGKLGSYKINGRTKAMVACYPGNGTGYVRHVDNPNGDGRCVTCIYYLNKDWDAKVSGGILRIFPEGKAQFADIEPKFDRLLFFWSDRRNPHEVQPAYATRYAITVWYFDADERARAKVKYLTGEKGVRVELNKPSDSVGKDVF

Turning to `O=C(O)CNC(=O)c1c(O)c2c(n(Cc3ccc(C(F)(F)F)cc3)c1=O)CN(C(=O)c1cncs1)C2` [Example 30, N-({4-hydroxy-2-oxo-6-(1,3-thiazol-5-ylcarbonyl)-1-[4-(trifluoromethyl)benzyl]-2,5,6,7-tetrahydro-1H-pyrrolo[3,4-b]pyridin-3-yl}carbonyl)glycine], the IC50 was less than 10 nM. Then `Cc1cc(C(=O)N2Cc3c(O)c(C(=O)NCC(=O)O)c(=O)n(Cc4ccc(C(F)(F)F)cc4)c3C2)nn1C` [Example 31, N-({6-[(1,5-dimethyl-1H-pyrazol-2-ium-3-yl)carbonyl]-4-hydroxy-2-oxo-1-[4-(trifluoromethyl)benzyl]-2,5,6,7-tetrahydro-1H-pyrrolo[3,4-b]pyridin-3-yl}carbonyl)glycine chloride], with less than 10 nM; and `O=C(O)CNC(=O)c1c(O)c2c(n(Cc3ccc(C(F)(F)F)cc3)c1=O)CN(C(=O)c1ccno1)C2` [Example 33, N-({4-hydroxy-6-(isoxazol-5-ylcarbonyl)-2-oxo-1-[4-(trifluoromethyl)benzyl]-2,5,6,7-tetrahydro-1H-pyrrolo[3,4-b]pyridin-3-yl}carbonyl)glycine], with 10 to 100 nM; and `O=C(O)CNC(=O)c1c(O)c2c(n(Cc3ccc(C(F)(F)F)cc3)c1=O)CN(C(=O)c1nccs1)C2` [Example 34, N-({4-hydroxy-2-oxo-6-(1,3-thiazol-2-ylcarbonyl)-1-[4-(trifluoromethyl)benzyl]-2,5,6,7-tetrahydro-1H-pyrrolo[3,4-b]pyridin-3-yl}carbonyl)glycine], with less than 10 nM. Take `O=C(O)CNC(=O)c1c(O)c2c(n(Cc3ccc(C(F)(F)F)cc3)c1=O)CN(C(=O)c1csnn1)C2` [Example 35, N-({4-hydroxy-2-oxo-6-(1,2,3-thiadiazol-4-ylcarbonyl)-1-[4-(trifluoromethyl)benzyl}-2,5,6,7-tetrahydro-1H-pyrrolo[3,4-b]pyridin-3-yl}carbonyl)glycine]: the IC50 is less than 10 nM.

`O=C(O)CNC(=O)c1c(O)c2c(n(Cc3ccc(C(F)(F)F)cc3)c1=O)CN(C(=O)c1cocn1)C2` [Example 37, N-({4-hydroxy-6-(1,3-oxazol-4-ylcarbonyl)-2-oxo-1-[4-(trifluoromethyl)benzyl]-2,5,6,7-tetrahydro-1H-pyrrolo[3,4-b]pyridin-3-yl}carbonyl)glycine]: the IC50 is less than 10 nM. With `O=C(O)CNC(=O)c1c(O)c2c(n(Cc3ccc(-c4ccccc4)cc3)c1=O)CN(C(=O)c1cscn1)C2` [Example 38, N-{[1-(biphenyl-4-ylmethyl)-4-hydroxy-2-oxo-6-(1,3-thiazol-4-ylcarbonyl)-2,5,6,7-tetrahydro-1H-pyrrolo[3,4-b]pyridin-3-yl]carbonyl}glycine], the IC50 was less than 10 nM. Regarding `O=C(O)CNC(=O)c1c(O)c2c(n(Cc3ccc(C(F)(F)F)cc3)c1=O)CN(Cc1ccc(Cl)cc1)C2` [Example 39, N-({6-(4-chlorobenzyl)-4-hydroxy-2-oxo-1-[4-(trifluoromethyl)benzyl]-2,5,6,7-tetrahydro-1H-pyrrolo[3,4-b]pyridin-6-ium-3-yl}carbonyl)glycine trifluoroacetate], the IC50 was less than 10 nM. Turning to `O=C(O)CNC(=O)c1c(O)c2c(n(Cc3ccc(C(F)(F)F)cc3)c1=O)CN(Cc1cccc(Cl)c1)C2` [Example 40, N-({6-(3-chlorobenzyl)-4-hydroxy-2-oxo-1-[4-(trifluoromethyl)benzyl]-2,5,6,7-tetrahydro-1H-pyrrolo[3,4-b]pyridin-6-ium-3-yl}carbonyl)glycine chloride], the IC50 fell in the range of 10 to 100 nM. The result for `CCN1Cc2c(O)c(C(=O)NCC(=O)O)c(=O)n(Cc3ccc(C(F)(F)F)cc3)c2C1` [Example 41, N-({6-ethyl-4-hydroxy-2-oxo-1-[4-(trifluoromethyl)benzyl]-2,5,6,7-tetrahydro-1H-pyrrolo[3,4-b]pyridin-6-ium-3-yl}carbonyl)glycine trifluoroacetate] reads 10 to 100 nM; that for `N#Cc1cccnc1N1Cc2c(O)c(C(=O)NCC(=O)O)c(=O)n(Cc3ccc(C(F)(F)F)cc3)c2C1` [Example 42, N-({6-(3-cyanopyridinium-2-yl)-4-hydroxy-2-oxo-1-[4-(trifluoromethyl)benzyl]-2,5,6,7-tetrahydro-1H-pyrrolo[3,4-b]pyridin-3-yl}carbonyl)glycine trifluoroacetate], less than 10 nM; that for `C=CCCC(=O)N1Cc2c(O)c(C(=O)NCC(=O)O)c(=O)n(Cc3cccc(-c4ccccc4)c3)c2C1` [Example 43, N-{[1-(biphenyl-3-ylmethyl)-4-hydroxy-2-oxo-6-pent-4-enoyl-2,5,6,7-tetrahydro-1H-pyrrolo[3,4-b]pyridin-3-yl]carbonyl}glycine], less than 10 nM. The result for `O=C(O)CNC(=O)c1c(O)c2c(n(Cc3cccc(-c4ccccc4)c3)c1=O)CN(C(=O)c1cscn1)C2` [Example 44, N-{[1-(biphenyl-3-ylmethyl)-4-hydroxy-2-oxo-6-(1,3-thiazol-4-ylcarbonyl)-2,5,6,7-tetrahydro-1H-pyrrolo[3,4-b]pyridin-3-yl]carbonyl}glycine] reads less than 10 nM; that for `O=C(O)CNC(=O)c1c(O)c2c(n(Cc3cccc(-c4ccc(Cl)cc4)c3)c1=O)CN(C(=O)c1cscn1)C2` [Example 45, N-{[1-[(4′-chlorobiphenyl-3-yl)methyl]-4-hydroxy-2-oxo-6-(1,3-thiazol-4-ylcarbonyl)-2,5,6,7-tetrahydro-1H-pyrrolo[3,4-b]pyridin-3-yl]carbonyl}glycine], less than 10 nM; that for `O=C(O)CNC(=O)c1c(O)c2c(n(Cc3cccc(-c4cncnc4)c3)c1=O)CN(C(=O)c1cscn1)C2` [Example 46, N-{[4-hydroxy-2-oxo-1-(3-pyrimidin-5-ylbenzyl)-6-(1,3-thiazol-4-ylcarbonyl)-2,5,6,7-tetrahydro-1H-pyrrolo[3,4-b]pyridin-3-yl]carbonyl}glycine], less than 10 nM. As for `O=C(O)CNC(=O)c1c(O)c2c(n(Cc3cccc(-c4ccccc4Cl)c3)c1=O)CN(C(=O)c1cscn1)C2` [Example 47, N-{[1-[(2′-chlorobiphenyl-3-yl)methyl]-4-hydroxy-2-oxo-6-(1,3-thiazol-4-ylcarbonyl)-2,5,6,7-tetrahydro-1H-pyrrolo[3,4-b]pyridin-3-yl]carbonyl}glycine], the IC50 is less than 10 nM. On to `C=CCCC(=O)N1Cc2c(O)c(C(=O)NCC(=O)O)c(=O)n(Cc3ccc(-c4ccccc4)cc3)c2C1C` (stereo not drawn) [Example 48, N-{[1-(biphenyl-4-ylmethyl)-4-hydroxy-7-methyl-2-oxo-6-pent-4-enoyl-2,5,6,7-tetrahydro-1H-pyrrolo[3,4-b]pyridin-3-yl]carbonyl}glycine], for which the half-maximal inhibitory concentration (IC50) is less than 10 nM.

`O=C(O)CNC(=O)c1c(O)c2c(n(Cc3ccccc3-c3ccccc3)c1=O)CN(C(=O)c1cscn1)C2` [Example 49, N-{[1-(biphenyl-2-ylmethyl)-4-hydroxy-2-oxo-6-(1,3-thiazol-4-ylcarbonyl)-2,5,6,7-tetrahydro-1H-pyrrolo[3,4-b]pyridin-3-yl]carbonyl}glycine]: the IC50 is less than 10 nM. `O=C(O)CNC(=O)c1c(O)c2c(n(Cc3cccc(-c4cccc(Cl)c4)c3)c1=O)CN(C(=O)c1cscn1)C2` [Example 50, N-{[1-[(3′-chlorobiphenyl-3-yl)methyl]-4-hydroxy-2-oxo-6-(1,3-thiazol-4-ylcarbonyl)-2,5,6,7-tetrahydro-1H-pyrrolo[3,4-b]pyridin-3-yl]carbonyl}glycine]: the IC50 is less than 10 nM. For `O=C(O)CNC(=O)c1c(O)c2c(n(Cc3cccc(-c4ccncc4)c3)c1=O)CN(C(=O)c1cscn1)C2` [Example 51, N-{[4-hydroxy-2-oxo-1-(3-pyridin-4-ylbenzyl)-6-(1,3-thiazol-3-ium-4-ylcarbonyl)-2,5,6,7-tetrahydro-1H-pyrrolo[3,4-b]pyridin-3-yl]carbonyl}glycine trifluoroacetate], the half-inhibitory concentration (IC50) is less than 10 nM. Then `O=C(O)CNC(=O)c1c(O)c2c(n(Cc3cccc(-c4cccnc4)c3)c1=O)CN(C(=O)c1cscn1)C2` [Example 52, N-{[4-hydroxy-2-oxo-1-(3-pyridin-3-ylbenzyl)-6-(1,3-thiazol-3-ium-4-ylcarbonyl)-2,5,6,7-tetrahydro-1H-pyrrolo[3,4-b]pyridin-3-yl]carbonyl}glycine trifluoroacetate], with less than 10 nM; and `O=C(O)CNC(=O)c1c(O)c2c(n(Cc3cccc(-c4ccc(F)nc4)c3)c1=O)CN(C(=O)c1cscn1)C2` [Example 53, N-{[1-[3-(6-fluoropyridin-3-yl)benzyl]-4-hydroxy-2-oxo-6-(1,3-thiazo1-4-ylcarbonyl)-2,5,6,7-tetrahydro-1H-pyrrolo[3,4-b]pyridin-3-yl]carbonyl}glycine], with less than 10 nM. Turning to `O=C(O)CNC(=O)c1c(O)c2c(n(Cc3ccccc3)c1=O)CN(C(=O)c1cscn1)C2` [Example 54, N-{[1-benzyl-4-hydroxy-2-oxo-6-(1,3-thiazol-4-ylcarbonyl)-2,5,6,7-tetrahydro-1H-pyrrolo[3,4-b]pyridin-3-yl]carbonyl}glycine], the IC50 was less than 10 nM. For `N#Cc1ccccc1Cn1c2c(c(O)c(C(=O)NCC(=O)O)c1=O)CN(C(=O)c1cscn1)C2` [Example 56, N-{[1-(2-cyanobenzyl)-4-hydroxy-2-oxo-6-(1,3-thiazol-4-ylcarbonyl)-2,5,6,7-tetrahydro-1H-pyrrolo[3,4-b]pyridin-3-yl]carbonyl}glycine], the IC50 was less than 10 nM.
